Reference: patent US4518711A, “Conformationally constrained cyclic enkephalin analogs with delta receptor specificity” (Gibson-Stephens Institute, priority 1983, dated 1985)
Like-named read-outs stand apart in the source and are kept apart here. Where a SMILES comes first, the peptide text is derived from it. Bridges are numbered along the chain shown (N, C = ends). [ ]: non-standard residue; d: D form. dPen = CC(C)(S)[C@@H](N)C(=O)O

How the values were obtained:
[1] = biological target: T1, delta receptors (rat brain membrane preparations) (Rattus norvegicus, UniProt P33533); assay: Rat brain binding assay, displacement of [3H][D-Ala2, D-Leu5]enkephalin
T1 construct: Whole brains with cerebellum removed were homogenized in 100 volumes of Tris-HCl buffer; from tissue; host or cells: rat whole brain (cerebellum removed) membrane homogenate

[2] = biological target: T2, delta type opiate receptors (mouse vas deferens preparation) (Mus musculus, UniProt P32300); assay: Mouse vas deferens (MVD) assay, inhibition of electrically stimulated contractions; type: cell-based; details: for IC50 (GPI)/IC50 (MVD): delta receptor selectivity, GPI versus MVD
T2 construct: The mouse vas deferens was prepared following the method of Hughes et al; from tissue; host or cells: mouse vas deferens
Protocol: These assays tested the degree of electrically stimulated contractions in the MVD and GPI tissues.
The mouse vas deferens was prepared following the method of Hughes et al. One pair of vasa deferentia was used in each experiment.

[3] = biological target: T3, mu receptors (rat brain membrane preparations) (Rattus norvegicus, UniProt P33535); assay: Rat brain binding assay, displacement of [3H]naloxone
T3 construct: Whole brains with cerebellum removed were homogenized in 100 volumes of Tris-HCl buffer; from tissue; host or cells: rat whole brain (cerebellum removed) membrane homogenate
T3 sequence (P33535 whole entry): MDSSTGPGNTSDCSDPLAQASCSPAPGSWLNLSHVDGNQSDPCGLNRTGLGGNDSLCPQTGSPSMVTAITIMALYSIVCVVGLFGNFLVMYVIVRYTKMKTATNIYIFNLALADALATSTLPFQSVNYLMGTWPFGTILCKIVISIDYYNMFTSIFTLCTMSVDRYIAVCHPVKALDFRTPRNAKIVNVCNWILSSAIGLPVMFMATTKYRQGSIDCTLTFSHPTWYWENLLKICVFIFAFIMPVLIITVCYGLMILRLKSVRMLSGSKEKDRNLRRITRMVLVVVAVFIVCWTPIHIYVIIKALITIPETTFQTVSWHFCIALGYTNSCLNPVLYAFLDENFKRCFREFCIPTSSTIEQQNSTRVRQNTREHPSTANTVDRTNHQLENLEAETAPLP

T2 sequence (P32300 whole entry): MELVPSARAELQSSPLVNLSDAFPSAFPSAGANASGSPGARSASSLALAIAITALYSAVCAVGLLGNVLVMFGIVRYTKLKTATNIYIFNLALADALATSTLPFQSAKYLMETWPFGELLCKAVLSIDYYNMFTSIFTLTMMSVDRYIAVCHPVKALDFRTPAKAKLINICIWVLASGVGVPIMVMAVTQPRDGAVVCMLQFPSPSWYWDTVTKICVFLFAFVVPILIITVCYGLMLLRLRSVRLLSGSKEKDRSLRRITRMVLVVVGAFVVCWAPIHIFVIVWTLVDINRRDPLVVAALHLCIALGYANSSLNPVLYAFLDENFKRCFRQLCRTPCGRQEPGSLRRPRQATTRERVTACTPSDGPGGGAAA
T1 sequence (P33533 whole entry): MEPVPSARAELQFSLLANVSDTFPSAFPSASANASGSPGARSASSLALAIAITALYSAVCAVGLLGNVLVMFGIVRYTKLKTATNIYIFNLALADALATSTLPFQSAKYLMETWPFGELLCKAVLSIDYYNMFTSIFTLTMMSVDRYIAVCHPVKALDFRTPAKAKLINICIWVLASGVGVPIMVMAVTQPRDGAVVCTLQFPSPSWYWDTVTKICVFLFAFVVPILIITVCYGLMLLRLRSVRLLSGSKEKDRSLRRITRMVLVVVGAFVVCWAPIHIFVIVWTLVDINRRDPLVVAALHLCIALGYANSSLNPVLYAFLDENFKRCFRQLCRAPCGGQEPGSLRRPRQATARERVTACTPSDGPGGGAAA

## C[C@@H](O)[C@H](NC(=O)[C@@H]1CSSC(C)(C)[C@@H](NC(=O)[C@@H](N)Cc2ccc(O)cc2)C(=O)NCC(=O)N[C@@H](Cc2ccccc2)C(=O)N1)C(=O)O (H-Y[dPen]GFCT-OH; disulfide 2-5)
[1]
  IC50: 5.2 nM
[1]; delta receptor selectivity in rat brain binding
  IC50 (NAL)/IC50 (DADLE): 28.2
[2]
  IC50: 0.6 nM
  IC50 (GPI)/IC50 (MVD): 380
[3]
  IC50: 146 nM

## Oc1ccc2c3c1O[C@H]1[C@@H](O)C=C[C@H]4[C@@H](C2)NCC[C@@]341 [Normorphine]
[2]
  IC50 (GPI)/IC50 (MVD): 0.17
[2]; electrically stimulated contractions, mouse vas deferens, read-out: IC50 (nM) MVD
  IC50: 540 nM

## CSCC[C@H](NC(=O)[C@H](Cc1ccccc1)NC(=O)CNC(=O)[C@@H](C)NC(=O)[C@@H](N)Cc1ccc(O)cc1)C(N)=O [[D-Ala^2, Met^5]Enkephalinamide, [D-Ala^2, Met^5]Enkephalinamide]
[2]
  IC50: 3.75 nM

## CC(C)C[C@H](NC(=O)[C@H](Cc1ccccc1)NC(=O)CNC(=O)[C@@H](CO)NC(=O)[C@@H](N)Cc1ccc(O)cc1)C(=O)N[C@H](C(=O)O)[C@@H](C)O [[D-Ser^2, Leu^5, Thr^6]Enkephalin, [D-Ser^2, Leu^5, Thr^6]enkephalin]
[1]
  IC50: 5.73 nM
[3]
  IC50: 88 ± 6 nM

## CC(C)C[C@H](NC(=O)[C@H](Cc1ccccc1)NC(=O)CNC(=O)[C@H](NC(=O)[C@@H](N)Cc1ccc(O)cc1)[C@H](C)O)C(=O)N[C@H](C(=O)O)[C@@H](C)O [[D-Thr^2, Leu^5, Thr^6]Enkephalin, [D-Thr^2, Leu^5, Thr^6]enkephalin]
[1]
  IC50: 6.4 nM
[3]
  IC50: 36.3 nM
